Earlier results as cited in US6727104B2, “Microcolumn chromatographic immunoassays” (The Board of Regents of the University of Nebraska, priority 2001, dated 2004).
Where two headings read alike, the source gives them in different places.

How the values were obtained:
[1] = target: Thyroxine-Binding Prealbumin (Homo sapiens, UniProt P02766)
[2] = target: T1, Thyroxine-Binding Globulin (Homo sapiens, UniProt P05543); conditions: T4 Binding Site
T1 sequence (P05543 21-415): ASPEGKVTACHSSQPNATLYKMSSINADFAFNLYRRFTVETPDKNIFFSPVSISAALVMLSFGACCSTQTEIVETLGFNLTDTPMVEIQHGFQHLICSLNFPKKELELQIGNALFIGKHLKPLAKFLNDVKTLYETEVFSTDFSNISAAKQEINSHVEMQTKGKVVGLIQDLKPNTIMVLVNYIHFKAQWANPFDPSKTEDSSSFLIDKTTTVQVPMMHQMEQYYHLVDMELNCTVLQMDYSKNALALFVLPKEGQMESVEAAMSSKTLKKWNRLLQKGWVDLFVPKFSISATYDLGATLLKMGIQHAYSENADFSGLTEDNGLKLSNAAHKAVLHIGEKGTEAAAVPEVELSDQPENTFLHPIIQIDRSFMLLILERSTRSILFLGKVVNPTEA

N[C@@H](Cc1cc(I)c(Oc2cc(I)c(O)c(I)c2)c(I)c1)C(=O)O [T4, L-Thyroxine]
Ka ([1]; High Affinity Site): 1e+07 M⁻¹
Ka ([1]; Low Affinity Site): 300000 M⁻¹
Ka [2]: 1e+10 M⁻¹
